Patent US5227372A, “Method for retaining ophthalmological agents in ocular tissues” (Children's Medical Center Corporation, priority 1990, dated 1993)
Blank lines part the entries; values can stand above or below the compound they belong to.

Tests used:
[1] = Fluorescence of Descemet's membrane in histological sections of corneas after application to the cornea (Example 4); type: in vivo, rabbit; details: fluorescein alone
[2] = intravenous injection; fluorescein alone; cited from earlier work
[3] = Fluorescence of neovascularized corneal vessels after injection into the carotid artery (Example 4); type: in vivo, rabbit; details: injected into the carotid artery; fluorescein alone
Description: The water soluble complex described in Example 3 was injected into the carotid artery of rabbits who had neovascularization in the cornea induced by a pellet of endotoxin implanted one week earlier. After a single injection, the new vessels in the cornea were still flourescing green 3 hours later.
Similarly, when the cyclodextrin-fluorscein complex, dissolved in an aqueous solution of methylcellulose (0.45%), was applied to the rabbit cornea, Descemet's membrane in the cornea also glowed green more than 3 hours later when histological sections of the corneas were examined.

[4] = polymeric film; cited from earlier work
[5] = polyacrylamide and copolymer of acrylamide, N-vinylpyrrolidone and ethyl acrylate matrix; cited from earlier work
[6] = rabbit, in vivo
[7] = system: fibroblast growth factor (FGF); details: sulfated cyclodextrin column; Shing et al.; cited from earlier work
[8] = rabbit, in vivo; remark: listed apart in the source
Description: A polyethylene ring was glued to the cornea in anesthesized rabbits. Saline containing 1 mg/ml of [S^35 ]-β-cyclodextrin tetradecasulfate was added to each well for up to 120 minutes, after which the wells were removed and the corneas vigorously rinsed with saline. The anterior chamber fluid (ACF) was then aspirated. The corneas were then exised and digested in collegenase and the corneal supernatunt counted.

- presence in Descemet's membrane [1]: not found in Descemet's membrane
Compound: O=C1OC2(c3ccc(O)cc3Oc3cc(O)ccc32)c2ccccc21 [fluorescein]
- time to clearance from the blood vessels [2]: less than one
- disappearance from the corneal vessels [3]: disappeared from the corneal vessels within a few minutes

Compound: CC[C@@H]1C(=O)OC[C@@H]1Cc1cncn1C [pilocarpine]
- increase in ocular bioavailability of pilocarpine over aqueous solution [4]: two
- increase in ocular bioavailability of pilocarpine [5]: three

- time after removal of wells up to which label is detected in the ACF and in the corneas [8]: up to three
- time course of penetration in both the corneas and ACF [8]: increased bearly with time
Compound: β-cyclodextrin tetradecasulfate
- concentration in the aqueous humor relative to cornea [6]: parallels that in the cornea, but at lower levels
- time course in the cornea [6]: rapid rise in the cornea of labelled β-cyclodextrin tetradecasulfate and then a gradual fall-off
- affinity for FGF [7]: high affinity
